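Method: 48-hour compound exposure of cells in 96-well plates, five concentrations, linear interpolation of endpoints. GI50: concentration for 50% inhibition of growth.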 Active and inactive are the calls of the source. Cut-off read from the data, not from the text of the source: active = GI50 up to about 1.1 µM and inactive = higher.
Columns and labels:
Assay in all cases: DTP human tumour cell line panel, 48 h
[1] = system: ACHN
[2] = system: LXFL 529
[3] = system: HOP-62
[4] = system: CCRF-CEM
[5] = system: DLD-1
[6] = system: NCI-H460
[7] = system: OVCAR-8
[8] = system: SF-539
[9] = system: RPMI-8226
[10] = system: SNB-75
[11] = system: K562
[12] = system: OVCAR-4
[13] = system: UO-31
[14] = system: OVCAR-3
[15] = system: 786-0
[16] = system: NCI-H522
[17] = system: SN12C
[18] = system: UACC-257
[19] = system: IGROV-1
[20] = system: SF-268
[21] = system: KM12
[22] = system: SK-MEL-28
[23] = system: Malme-3M
[24] = system: HCT-116
[25] = system: UACC-62
[26] = system: DMS-273
[27] = system: DMS-114
[28] = system: SF-295
[29] = system: A549
[30] = system: U-251
[31] = system: RXF 631
[32] = system: HCT-15
[33] = system: HCC 2998
[34] = system: SR
[35] = system: SNB-19
[36] = system: COLO 205
[37] = system: HT-29
[38] = system: M14
[39] = system: NCI-H226
[40] = system: SW-620
[41] = system: EKVX
[42] = system: HOP-92
[43] = system: NCI-H23
[44] = system: CAKI-1
[45] = system: MOLT-4
[46] = system: KM-20L2
[47] = system: HOP-18
[48] = system: HL-60
[49] = system: SK-MEL-2
[50] = system: M19-MEL
[51] = system: RXF 393
[52] = system: LOX IMVI
[53] = system: SK-MEL-5
[54] = system: SNB-78
[55] = system: SK-OV-3
[56] = system: A498
[57] = system: TK-10
[58] = system: OVCAR-5

Measured: GI50

CC(=O)NC(CCCCN(Cc1ccccc1)C(=O)NCCCl)C(=O)NCc1ccccc1 (stereo not given)
> 100 µM: [32]
inactive: [1] > 100 µM | [2] > 100 µM | [3] > 100 µM | [4] > 100 µM | [5] > 100 µM | [6] > 100 µM | [7] > 100 µM | [8] > 100 µM | [9] > 100 µM | [10] > 100 µM | [11] > 100 µM | [12] > 100 µM | [13] > 100 µM | [14] > 100 µM | [15] > 100 µM | [16] > 100 µM | [17] > 100 µM | [18] > 100 µM | [19] > 100 µM | [20] > 100 µM | [21] > 100 µM | [22] > 100 µM | [23] > 100 µM | [24] > 100 µM | [25] > 100 µM | [26] > 100 µM | [27] > 100 µM | [28] > 100 µM | [29] > 100 µM | [30] > 100 µM | [31] > 100 µM | [33] > 100 µM | [34] > 100 µM | [35] > 100 µM | [36] > 100 µM | [37] > 100 µM | [38] > 100 µM | [39] > 100 µM | [40] > 100 µM | [41] > 100 µM | [42] > 100 µM | [43] > 100 µM | [44] > 100 µM | [45] > 100 µM | [46] > 100 µM | [47] 29.1 µM | [48] > 100 µM | [49] > 100 µM

CC(=O)OC1COC(Nc2ccc(C(C)=O)cc2)C(OC(C)=O)C1OC(C)=O (stereo not given)
inactive: [1] > 100 µM | [2] > 100 µM | [3] > 100 µM | [4] > 100 µM | [5] > 100 µM | [6] > 100 µM | [7] > 100 µM | [8] > 100 µM | [50] > 100 µM | [9] > 100 µM | [10] > 100 µM | [11] > 100 µM | [12] > 100 µM | [13] > 100 µM | [51] > 100 µM | [14] > 100 µM | [15] > 100 µM | [16] > 100 µM | [17] > 100 µM | [18] > 100 µM | [19] > 100 µM | [20] > 100 µM | [21] > 100 µM | [22] > 100 µM | [23] > 100 µM | [25] > 100 µM | [26] > 100 µM | [27] > 100 µM | [28] > 100 µM | [29] > 100 µM | [30] > 100 µM | [31] > 100 µM | [52] > 100 µM | [33] > 100 µM | [34] > 100 µM | [35] > 100 µM | [36] > 100 µM | [37] > 100 µM | [38] > 100 µM | [53] > 100 µM | [39] > 100 µM | [40] > 100 µM | [41] > 100 µM | [42] > 100 µM | [43] > 100 µM | [44] > 100 µM | [45] > 100 µM | [54] > 100 µM | [46] > 100 µM | [47] > 100 µM | [49] > 100 µM | [55] > 100 µM | [56] > 100 µM | [57] > 100 µM
> 100 µM: [32]

CC(C)C(=S)N(C)O
active: [4] 0.502 µM | [9] 0.518 µM | [11] 0.42 µM | [34] 0.481 µM | [36] 0.35 µM | [45] 0.809 µM
inactive: [1] 31 µM | [2] 2.39 µM | [3] 24.5 µM | [5] 2.73 µM | [6] 5.69 µM | [7] 13.9 µM | [8] 25.6 µM | [50] 11.4 µM | [10] 22.4 µM | [12] 9.89 µM | [13] 9.64 µM | [51] 98.9 µM | [14] 2.82 µM | [15] 18.3 µM | [58] > 65.5 µM | [16] 6.08 µM | [17] 26.6 µM | [18] 29.1 µM | [19] > 62.5 µM | [20] 27.6 µM | [21] 17.7 µM | [22] 37.6 µM | [23] 53.7 µM | [24] 2.29 µM | [25] 10.1 µM | [27] 2.43 µM | [28] 16.8 µM | [29] 12.4 µM | [30] 28.4 µM | [31] 11.7 µM | [52] 11.8 µM | [33] 40.2 µM | [35] > 29.2 µM | [37] 1.46 µM | [38] 21.6 µM | [53] 8.02 µM | [39] 44 µM | [40] 1.52 µM | [41] 23.1 µM | [42] 47.8 µM | [43] 29.8 µM | [44] 19.9 µM | [54] 61.2 µM | [46] 14.5 µM | [48] 1.35 µM | [49] 24.5 µM | [55] 55.3 µM | [56] 19.1 µM | [57] > 51.3 µM
24.2 µM: [32]

Source: ChEMBL document CHEMBL1201862, “PubChem BioAssay data set” (2004)
